Columns and labels:
[1] = test system: SREBP-1; assay: Expression of SREBP-1 protein in liver of mice with high-fat diet-induced fatty liver, western blotting; format: in vivo; details: oral, 10 mg/kg/day or 30 mg/kg/day for 2 days; liver tissue; FIG. 11b
Procedure: (§1) 3 days after the diet was fed, the mice were fed the high-fat diet containing safflower oil while being orally administered JC1-40 and JC1-42, which had been diluted with 0.5% carboxymethyl cellulose, at a dose of 10 mg/kg/day or 30 mg/kg/day for 2 days. 5 days after the diet was fed, the mice were sacrificed to extract liver tissues therefrom, and the expression of proteins was analyzed by western blotting analysis. That is, after treatment, each liver tissue was homogenized in a lysis buffer containing 50 mM NaCl, 50 mM Tris pH 7.4, 5 mM EDTA, 1% NP-40, and a protease inhibitor, and then centrifuged to obtain a total cell lysate. 20 μg to 30 μg of proteins collected from the total cell lysate was subjected to 7% to 9% SDS-PAGE, and was transferred to a polyvinylidene difluoride membrane (Millipore, Bedford, Mass., USA). […] Immunoreactive proteins were detected with Amersham ECL western blotting detection reagents using an HRP-conjugated secondary antibody (Zymed Lab). Protein concentrations were quantified by BCA (Pierce) analysis, and the expression of α-tubulin was monitored as a control. […]

[2] = test system: FAS; assay: Expression of FAS protein in liver of mice with high-fat diet-induced fatty liver, western blotting; format: in vivo; details: oral, 10 mg/kg/day or 30 mg/kg/day for 2 days; liver tissue; FIG. 11b
Procedure: as §1

[3] = test system: A7r5; assay: Proliferation of vascular smooth muscle cells, MTT; format: cell-based, rat; details: 100 μM for 2 days, 4 days, or 6 days, FIG. 14
Procedure: A7r5, which is a rat smooth muscle cell line, was purchased from ATCC. A7r5 was cultured in 5% CO2 using a DMEM supplemented with 10% FBS, penicillin (100 U/ml), and streptomycin (100 μg/ml) prior to use in an experiment. A7r5 cells (2×10^3 cells/well) were seeded on a 96-well culture plate and cultured overnight. After culturing, the A7r5 cells were treated with each of the JC1-40 and JC1-42 compounds at a concentration of 100 μM for 2 days, 4 days, or 6 days. Subsequently, the A7r5 cells were treated with MTT (3-4,5-dimethylthiazol-2-yl)-2,5-diphenyl-tetrazolium bromide) (2 mg/ml, 50 μl) for 4 hours, and then the medium was removed and 200 μl of DMSO was added to the plate. The contents in the plate were mixed for 5 minutes, and then absorbance was measured at 595 nm. Data was attained as the mean and SD for the three independent experimental results, and the results thereof are illustrated in FIG. 14.

[4] = test system: FAS; assay: Expression of FAS protein in HepG2 cells, western blotting; format: cell-based, human; details: for expression of FAS, which had been increased by T17: 0, 1, 10, 50, 100 μM with 1 μM T17, 24 hours, FIGS. 6b and 6c; for expression of FAS protein: 100 μM, 24 hours, FIG. 6a
Procedure: HepG2 cells (1×10^6 cells/well) were seeded on a 60-dish and cultured overnight in a DMEM containing 10% FBS. The HepG2 cells were maintained at 37° C. in a humidification thermostat containing 5% CO2 and 95% air. After culturing, the HepG2 cells were treated with each of the JC1-38, JC1-40, and JC1-42 compounds at a concentration of 100 μM, and, as a positive control, the HepG2 cells were treated with 2 mM metformin, which is an AMPK activator, for 24 hours. After treatment, the expression of proteins was analyzed by western blotting analysis. That is, after treatment, the HepG2 cells were destroyed on ice in a lysis buffer containing 50 mM NaCl, 50 mM Tris pH 7.4, 5 mM EDTA, 1% NP-40, and a protease inhibitor for 30 minutes, and then centrifuged to obtain a total cell lysate. 20 μg to 30 μg of proteins collected from the total cell lysate was subjected to 7% to 9% sodium dodecyl sulfate-polyacrylamide gel electrophoresis (SDS-PAGE), and was transferred to a polyvinylidene difluoride membrane (Millipore, Bedford, Mass., USA). The resulting product was subjected to blocking with 5% or 10% (w/v) nonfat dry milk in PBS containing 0.1% Tween-20, and was reacted with antibodies specific to RORα (Affinity BioReagents), LXRα, SREBP-1, FAS (Santa Cruz Biotechnology), phospho-ACC (Cell signaling), and α-tubulin (Calbiochem). Immunoreactive proteins were detected with Amersham ECL western blotting detection reagents using a horseradish peroxidase (HRP)-conjugated secondary antibody (Zymed Lab). Protein concentrations were quantified by bicinchoninic acid (BCA) (Pierce) analysis, and the expression of α-tubulin was monitored as a control. The results thereof are illustrated in FIG. 6a.
In addition, HepG2 cells were cultured under the same conditions, and then the HepG2 cells were treated with particular concentrations (0 μM, 1 μM, 10 μM, 50 μM, and 100 μM) of JC1-40 (or JC1-42) and 1 μM T17 for 24 hours. After treatment, the expression of proteins was analyzed by western blotting analysis, and the expression of α-tubulin was monitored as a control. The results thereof are illustrated in FIGS. 6b and 6c.

[5] = test system: HepG2 cells; assay: Lipid accumulation in hepatocytes, Nile red staining and flow cytometry; format: cell-based, human; details: 50 μM with oleic acid/palmitic acid mixture, 3 days; FIGS. 10a and 10b
Procedure: HepG2 cells (3×10^5 cells/well) were seeded on a 60-dish and cultured overnight in a DMEM containing 10% FBS. The HepG2 cells were maintained at 37° C. in a humidification thermostat containing 5% CO2 and 95% air. After culturing, the HepG2 cells were treated with 50 μM JC1-40 (or JC1-42) and, as a lipid generation inducing material, a fatty acid mixture prepared by mixing 0.5 mM oleic acid and 0.5 mM palmitic acid in a ratio of 2:1 (5 mM oleic acid and 5 mM palmitic acid were mixed in a medium containing 1% fatty acid-free bovine serum albumin (BSA) and diluted to the final concentration prior to use) for 3 days. After 3 days, cell lysates were collected, and stained with 1 μg/ml of Nile red at room temperature for 15 minutes, and the concentration of triglycerides was measured by a flow cytometry method using a FACSCalibur™ machine (BD Biosciences). Fluorescence emission was measured at a wavelength between 500 nm and 580 nm. The results thereof are illustrated in FIGS. 10a and 10b.

[6] = test system: mice with high-fat diet-induced fatty liver; assay: Intrahepatic triglyceride, intrahepatic fat accumulation and body weight in mice with high-fat diet-induced fatty liver; format: in vivo; details: oral, 10 mg/kg/day or 30 mg/kg/day for 2 days; for amount of intrahepatic triglyceride, which had been increased by the high-fat diet: FIG. 12a; for intrahepatic fat accumulation (Oil Red O staining): FIG. 12b; for body weights of the mice, which had been increased by the high-fat diet: FIG. 12c
Procedure: 3 days after the diet was fed, the mice were fed the high-fat diet containing safflower oil while being orally administered JC1-40 and JC142, which had been diluted with 0.5% carboxymethyl cellulose, at a dose of 10 mg/kg/day or 30 mg/kg/day for 2 days. 5 days after the diet was fed, the mice were sacrificed to extract liver tissues therefrom, and the amounts of intrahepatic triglycerides were measured using an EnzyChrom™ triglyceride assay kit (BioAssay Systems).
In addition, Oil Red O staining, which enables the identification of intrahepatic fat accumulation, was performed on the extracted liver tissues of the mice.

| lipid accumulation in hepatocytes [5] | SMILES | expression of SREBP-1 protein, which had been increased by the high-fat diet [1] | expression of FAS protein, which had been increased by the high-fat diet [2] | proliferation of vascular smooth muscle cells [3] | expression of FAS, which had been increased by T17 [4] | expression of FAS protein [4] | amount of intrahepatic triglyceride, which had been increased by the high-fat diet [6] | intrahepatic fat accumulation (Oil Red O staining) [6] | body weights of the mice, which had been increased by the high-fat diet [6] |
| --- | --- | --- | --- | --- | --- | --- | --- | --- | --- |
| significantly decreased | CNC(=S)NCc1ccc(OCc2ccccc2)cc1 [Compound 40, 1-(4-benzyloxy-benzyl)-3-methyl-thiourea] | decreased | decreased | decreased | decreased in a manner dependent on the concentration | decreased | decreased | decreased | decreased |
| significantly decreased | CNC(=S)NCc1ccc(Oc2ccccc2)cc1 [Compound 42, 1-(4-phenoxy-benzyl)-3-methyl-thiourea] | decreased | decreased | decreased | decreased in a manner dependent on the concentration | decreased | decreased | decreased | decreased |

— patent US10407388B2, “Thiourea derivatives as activators of RORα and pharmaceutical composition containing same” (SEOUL NATIONAL UNIVERSITY R & DB FOUNDATION, priority 2011, dated 2019)
